Source: PMC10535741, “Styrylpyridinium Derivatives for Fluorescent Cell Imaging” (Pharmaceuticals, 2023)
Several values for one entry are separate records, joined by “and”; a condition that tells them apart may be missing. Equal entries are not always repeated. Where two headings read alike, the source gives them in different places.

How the values were obtained:
in vitro = format: cell-based, rat; conditions: rat
Description: (§1) For selected compounds, 6a–6f, we performed a determination of the cytotoxicity in a wider variety of cancer and non-cancerous cell lines (see Table S2, Supplementary Materials) in order to learn the characteristic features of selectivity or the similarity of biological properties.
(§2) The HT-1080 (human connective tissue fibrosarcoma, ATCC® CCL-121™), MH-22A (mouse hepatocarcinoma, ECACC Cat. No. 96121721), A-549 (human lung carcinoma, ATCC® CCL-185™), NIH3T3 (Swiss Albino mouse embryo fibroblast, ECACC Cat. No. 93061524), Hek293 (human embryonic kidney, ATCC® CRL-1573™), BHK-21 (Syrian hamster kidney, ATCC® CCL-10™), A-431 (human epidermoid carcinoma, ATCC® CRL-1555™), Saos-2 (human osteosarcoma, ATCC® HTB-85™), HeLa (human epitheloid cervix carcinoma, ATCC® CCL-2™), U937 (human myeloid leukaemia, ATCC® CRL-1593.2™), C6 (rat glioma, ATCC® CCL-107™), and B16-F10 (murine melanoma, ATCC® CRL-6475™) cell lines were obtained from the American Type Culture Collection (ATCC) and European Collection of Authenticated Cell Cultures (ECACC).
(§3) HT-1080, MH-22A, A-549, NIH3T3, BHK-21, A-431, HeLa, and B16-F10 cells were cultured in Dulbecco’s Modified Eagle’s Medium (DMEM) with 2 mM glutamine and 10% foetal bovine serum (FBS). Hek293 cells were cultured in Eagle’s Minimum Essential Medium with 10% foetal bovine serum. U937 cells were cultured in RPMI-1640 Medium with 2 mM glutamine and 10% foetal bovine serum. C6 cells were cultured in Ham’s F12 Medium with 2 mM glutamine and 10% foetal bovine serum. Saos-2 cells were cultured in McCoy’s 5a Medium with 2 mM glutamine and 10% foetal bovine serum. The cells were incubated at 37 °C with 5% CO2, 95% air, and complete humidity. Once ~90% confluence was reached, they were detached using 0.05% trypsin/EDTA and counted. The cells were plated at optimally determined densities for the logarithmic phase of growth. These cells were then suspended at a concentration of 4000 cells/well for HT-1080, MH-22A, A-549, NIH3T3, BHK-21, A-431, HeLa, B16-F10, Hek293, and Saos-2 cells and a concentration of 9000 cells/well for U937, C6, Hek293, and GM08402 cells and added onto a 96-well plate. For background absorption, some wells remained cell free, i.e., as a blank control. Cells were incubated for 72 h at 37 °C and 5% CO2 where they were exposed to a media containing serial dilutions of the investigated compounds (n = 3). Cell viability was measured using the 3-(4,5-dimethylthiazol-2-yl)-2,5-diphenyl-tetrazolium bromide (MTT) assay. In brief, after incubating with compounds, the culture medium was removed and fresh medium with 0.2 mg/mL MTT was added to each well of the plate. After incubation (3 h, 37 °C, 5% CO2), the medium with MTT solution was removed and replaced with 200 µL DMSO and 25 µL Sorenson’s glycine buffer (glycine 0.1 M, NaCl 0.1 M, pH: 10.5 with 0.1 M NaOH). The plate was shaken for 15 min at room temperature and the optical density (OD) of the wells was determined using a multichannel spectrophotometer (Thermo Scientific Multiskan EX) at 540 nm. The quantity of the control cells was taken in calculations as 100%. The IC50 value was calculated using the program Graph Pad Prism® 3.0. […]

[1] = Self-assembling properties by dynamic light scattering (DLS); format: physicochemical; conditions: 0.1 mM in aqueous medium, ethanol injection, freshly prepared
Protocol: The estimation of self-assembling properties for the selected compounds was performed using dynamic light scattering (DLS) measurements. The values for the polydispersity index (PDI) and the hydrodynamic average diameter (Dav) of nanoparticles formed by compounds 6a,c–e,g were determined (with a final compound concentration of 0.1 mM in the aqueous medium). The nanoparticles were prepared by the ethanol injection method via the dissolution of the compound in ethanol and after that by the dispersion of the solution into water. The approach is rapid, simple, and can be easily scaled up. This method was previously used successfully for the preparation and characterisation of lipid-like pyridinium amphiphiles. The DLS measurements were performed for freshly prepared samples at room temperature.
The self-assembling properties of the tested compounds were estimated according to a published procedure with minor modifications. Stock solutions of the compounds were prepared in EtOH at a concentration of 1 mM. Stock solutions of the compounds (0.3 mL) were injected into 2.7 mL of deionised water with maximum stirring (IKA Vortex 2 (IKA, Staufen, Germany)) to obtain a final concentration of 0.1 mM. The DLS measurements of the nanoparticles in the aqueous solution were conducted using a Zetasizer Nano ZSP (Malvern Panalytical Ltd., Malvern, UK) instrument with Malvern Instruments Ltd. Software 8.01.4906. The measurements were performed with the following settings—medium: water; refractive index: 1.33; viscosity: 0.8872 cP; temperature: 25 °C; dielectric constant: 78.5; nanoparticles: liposomes; refractive index of materials: 1.60; detection angle: 173° wavelength: 633 nm. The obtained data were analysed using the multimodal number distribution software provided with the instrument. To ensure reproducibility, the measurements were performed in triplicate.

[2] = system: BHK-21 (Syrian hamster kidney); assay: MTT cytotoxicity assay, BHK-21; format: cell-based
Description: as §1, §2
(§4) HT-1080, MH-22A, A-549, NIH3T3, BHK-21, A-431, HeLa, and B16-F10 cells were cultured in Dulbecco’s Modified Eagle’s Medium (DMEM) with 2 mM glutamine and 10% foetal bovine serum (FBS). Hek293 cells were cultured in Eagle’s Minimum Essential Medium with 10% foetal bovine serum. U937 cells were cultured in RPMI-1640 Medium with 2 mM glutamine and 10% foetal bovine serum. C6 cells were cultured in Ham’s F12 Medium with 2 mM glutamine and 10% foetal bovine serum. Saos-2 cells were cultured in McCoy’s 5a Medium with 2 mM glutamine and 10% foetal bovine serum. The cells were incubated at 37 °C with 5% CO2, 95% air, and complete humidity. Once ~90% confluence was reached, they were detached using 0.05% trypsin/EDTA and counted. The cells were plated at optimally determined densities for the logarithmic phase of growth. These cells were then suspended at a concentration of 4000 cells/well for HT-1080, MH-22A, A-549, NIH3T3, BHK-21, A-431, HeLa, B16-F10, Hek293, and Saos-2 cells and a concentration of 9000 cells/well for U937, C6, Hek293, and GM08402 cells and added onto a 96-well plate. For background absorption, some wells remained cell free, i.e., as a blank control. Cells were incubated for 72 h at 37 °C and 5% CO2 where they were exposed to a media containing serial dilutions of the investigated compounds (n = 3). Cell viability was measured using the 3-(4,5-dimethylthiazol-2-yl)-2,5-diphenyl-tetrazolium bromide (MTT) assay. In brief, after incubating with compounds, the culture medium was removed and fresh medium with 0.2 mg/mL MTT was added to each well of the plate. After incubation (3 h, 37 °C, 5% CO2), the medium with MTT solution was removed and replaced with 200 µL DMSO and 25 µL Sorenson’s glycine buffer (glycine 0.1 M, NaCl 0.1 M, pH: 10.5 with 0.1 M NaOH). The plate was shaken for 15 min at room temperature and the optical density (OD) of the wells was determined using a multichannel spectrophotometer (Thermo Scientific Multiskan EX) at 540 nm. The quantity of the control cells was taken in calculations as 100%. The IC50 value was calculated using the program Graph Pad Prism® 3.0.
(§5) The HT-1080 (human connective tissue fibrosarcoma, ATCC® CCL-121™), MH-22A (mouse hepatocarcinoma, ECACC Cat.No. 96121721), A-549 (human lung carcinoma, ATCC® CCL-185™), NIH 3T3 (mouse Swiss Albino embryo fibroblast, ECACC Cat.No. 93061524), Hek293 (human embryonic kidney, ATCC® CRL-1573™), BHK-21 (hamster Syrian kidney, ATCC® CCL-10™), A-431 (human epidermoid carcinoma, ATCC® CRL-1555™), Saos-2 (human oste osarcoma, ATCC® HTB-85™) HeLa (human epitheloid cervix carcinoma, ATCC® CCL-2™), U937 (human myeloid leukaemia, ATCC® CRL-1593.2™), C6 (rat glioma, ATCC® CCL-107™), B16-F10 (murine melanoma, ATCC® CRL-6475™) cell lines were obtained from American Type Culture Collection (ATCC) and European Collection of Authenticated Cell Cultures […]
(§6) Table S2. […]

[3] = system: NIH3T3 (Swiss Albino mouse embryo fibroblast); assay: in vitro; format: cell-based
Description: as §1, §2, §4, §5, §6

[4] = system: B16-F10 (murine melanoma); assay: in vitro; format: cell-based
Description: as §1, §2, §3

[5] = cancer cell line, MTT, 72 h, read-out: Cytotoxicity IC50 C6

Compound: CCCCCCCCCCCCCCCC[n+]1ccc(C=CC=Cc2ccc(OC)cc2)cc1.[Br-] [Compound 6c, 1-hexadecyl-4-(4-(4-methoxyphenyl)buta-1,3-dien-1-yl)pyridin-1-ium bromide]
- IC50 at 72 h (in vitro): 0.6 µg/mL
- Dav, nm (average diameter of formed nanoparticles) [1]: 212 nm and 212 ± 4 nm
- PDI (polydispersity index) [1]: 0.218 ± 0.026

Compound: CCCCCCCCCCCC[n+]1ccc(C=Cc2cc3c4c(c2)CCCN4CCC3)cc1.[Br-] [Compound 6d, 1-dodecyl-4-(2-(2,3,6,7-tetrahydro-1H,5H-pyrido[3,2,1-ij]quinolin-9-yl)vinyl)pyridin-1-ium bromide]
- IC50 at 72 h (in vitro; [5]): 0.129 µg/mL
- PDI (polydispersity index) [1]: 0.286 ± 0.030

Compound: CCCCCCCCCCCC[n+]1ccc(C=Cc2cc(OC)c(OC)c(OC)c2)cc1.[Br-] [Compound 6a, 4-(3,4,5-trimethoxystyryl)-N-dodecylpyridinium bromide]
- times lower cytotoxicity of 6a compared with 6d, BHK-21 ([2]; Syrian hamster, 72 h): 12.5 times
- times lower cytotoxicity of 6a compared with 6d, NIH3T3 ([3]; mouse, 72 h): 21.9 times
- IC50 at 72 h (in vitro; [5]): 0.86 µg/mL
- PDI (polydispersity index) [1]: 0.331 ± 0.261

Compound: CCCCCCCCCCCCCCCC[n+]1ccc(C=Cc2cc(OC)c(OC)c(OC)c2)cc1.[Br-] [Compound 6b]
- Cytotoxicity IC50 BHK-21 [2]: 1.11 µg/mL
- Cytotoxicity IC50 NIH3T3 [3]: 1.02 µg/mL
- Cytotoxicity IC50 B16-F10 [4]: 0.63 µg/mL

Compound: CCCCCCCCCCCCCCCC[n+]1ccc(C=CC=Cc2cc3c4c(c2)CCCN4CCC3)cc1.[Br-] [Compound 6e, 1-hexadecyl-4-(4-(2,3,6,7-tetrahydro-1H,5H-pyrido[3,2,1-ij]quinolin-9-yl)buta-1,3-dien-1-yl)pyridin-1-ium bromide]
- IC50 at 72 h (in vitro; [5]): 3.4 µg/mL
- Dav, nm (average diameter of formed nanoparticles) [1]: 118 nm and 118 ± 4 nm
- PDI (polydispersity index) [1]: 0.260 ± 0.011
